pIC50: −log10 of the molar value. Read-outs that look alike come from different tables or passages of the source. Where a SMILES comes first, the peptide text is derived from it. The star is where a group is joined. Phenanthrenequinone2carbonyl = O=C1C(=O)c2cc(C(=O)*)ccc2-c2ccccc21
How the values were obtained:
[1] = tested on: T cells (PBMC); assay: cells; assay type: cell-based, human; conditions: human PBMC, OKT3 30 ng/mL, [3H]thymidine; read-out: T cell prolif. IC50
[2] = biological target: T1, CD45 (Homo sapiens, UniProt P08575); assay: Phosphatase assay using pNPP as substrate; assay type: biochemical
T1 construct: incubating the cytosolic portion of CD45 with the compounds and p-nitrophenyl phosphate (pNPP); purchased BIOMOL (Plymouth Meeting, Pa.)
T1 sequence (P08575 599-1306 limits assumed): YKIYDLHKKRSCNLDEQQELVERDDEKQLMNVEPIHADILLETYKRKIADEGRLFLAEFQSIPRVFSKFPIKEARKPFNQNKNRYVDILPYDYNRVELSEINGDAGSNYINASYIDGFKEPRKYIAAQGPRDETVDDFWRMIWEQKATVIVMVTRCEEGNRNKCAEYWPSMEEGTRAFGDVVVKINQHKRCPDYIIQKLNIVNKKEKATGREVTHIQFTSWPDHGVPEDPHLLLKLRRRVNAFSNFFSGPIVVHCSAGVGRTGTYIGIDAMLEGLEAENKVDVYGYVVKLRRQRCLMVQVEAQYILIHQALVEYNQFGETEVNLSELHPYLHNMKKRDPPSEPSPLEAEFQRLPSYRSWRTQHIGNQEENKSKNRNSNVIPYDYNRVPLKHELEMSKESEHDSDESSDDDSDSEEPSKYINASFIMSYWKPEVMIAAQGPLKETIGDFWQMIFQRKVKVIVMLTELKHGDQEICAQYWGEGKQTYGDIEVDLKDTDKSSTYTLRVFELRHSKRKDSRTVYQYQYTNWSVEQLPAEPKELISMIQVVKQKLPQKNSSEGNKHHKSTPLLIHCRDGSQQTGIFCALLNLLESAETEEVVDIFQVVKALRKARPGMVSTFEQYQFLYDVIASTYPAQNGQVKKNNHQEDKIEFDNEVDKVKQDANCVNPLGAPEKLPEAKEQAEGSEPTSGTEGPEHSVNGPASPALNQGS
Protocol: Phosphatase assay using pNPP as substrate:
CD45 enzyme was obtained from BIOMOL (Plymouth Meeting, Pa.). Phosphatase activity was assayed in a buffer containing final concentrations of 25 mM imidazole at pH 7.0, 50 mM NaCl, 2.5 mM ethylenediaminetetraacetic acid (“EDTA”), 5 mM dithiothreitol (“DTT”) and 10 μg/mL bovine serum albumin (“BSA”) using pNPP as a substrate.

[3] = in vitro; conditions: human
[4] = biological target: T1, CD45; assay: Phosphatase assay using lck 10-mer as substrate; assay type: biochemical
Summary of the method: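 Enzyme incubated with lck phosphopeptide TEGQpYQPQP for 1.5 h at room temperature in 25 mM HEPES pH 7.2, 5 mM DTT, 10 μg/mL BSA, 5% DMSO final. Compounds tested from 30 to 0.01 μM. Released phosphate detected with malachite-type Green Reagent, absorbance at 620 nm after 30 min.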

[5] = tested on: T-cell lymphoblasts; assay: Cytotoxicity assay (Calcein-AM uptake); conditions: PHA-expanded T-cell lymphoblasts, overnight incubation, Calcein-AM
[6] = tested on: T-cell lymphoblasts
[7] = CD45 phosphatase, pNPP substrate, pH 7.0, read-out: pNPP IC50
[8] = CD45 phosphatase, lck carboxy-terminal peptide TEGQpYQPQP substrate, pH 7.2, read-out: Ick IC50

Compound	pIC50 [1]	pIC50 ([2]; pH 7, read-out: pNPP IC50)	CC50 [3] [µM]	pIC50 ([4]; pH 7.2, read-out: Ick IC50)	pIC50 [2, 7]	CC50 [5] [µM]	pIC50 [4, 8]	CC50 [6] [µM]	pIC50 [4]	pIC50 [2]
O=C1C(=O)c2ccccc2-c2ccccc21 [Example 106, 9,10-Phenanthrenedione]	6.52	6.15	1.3	5.51	–	–	–	–	–	–
O=C1C(=O)c2ccc(NC(=O)C(Cl)(Cl)Cl)cc2-c2ccccc21 [Example 11, 2,2,2-Trichloro-N(9,10-dioxo-9,10-dihydro-phenanthren-3-yl)-acetamide]	5.19	–	–	–	5.55	> 30	4.94	–	–	–
O=C1C(=O)c2c(-c3ccc4ccccc4c3)cccc2-c2ccccc21 [Example 19, 1 -Naphthalen-2-yl-phenanthrene-9,10-dione]	5.80	–	–	–	5.35	–	< 4.52	4.4	–	–
8-(9,10-Dioxo-9,10-dihydro-phenanthren-3-ylcarbamoyl)-heptanoic Acid Methyl Ester [Example 78]	5.89	–	–	–	6.15	28	5.16	–	–	–
COC(=O)CCCCCCCCC(=O)Nc1ccc2c(c1)-c1ccccc1C(=O)C2=O [Example 79, 9-(9,10-Dioxo-9,10-dihydro-phenanthren-3-ylcarbamoyl)-nionanoic Acid Methyl Ester]	6.30	–	–	–	5.80	> 30	< 4.52	–	–	–
CCCC(=O)Nc1ccc2c(c1)-c1ccccc1C(=O)C2=O [Example 9, N-(9,10-Dioxo-9,10-dihydro-phenenathren-3-yl)-butyramide]	6.10	–	–	–	6.10	9.1	5.28	–	–	–
N=C(N)NCCC[C@H](NC(=O)c1ccc2c(c1)C(=O)C(=O)c1ccccc1-2)C(=O)NCC(=O)N1CCC[C@H]1C(=O)N[C@@H](CCCNC(=N)N)C(=O)NCC(=O)O [Example 51] (Phenanthrenequinone2carbonyl-RGPRG-OH)	–	5.96	> 30	–	–	–	–	–	5.32	–
N=C(N)NCCC[C@H](NC(=O)c1ccc2c(c1)C(=O)C(=O)c1ccccc1-2)C(=O)N[C@@H](CCC(=O)O)C(=O)N1CCC[C@H]1C(=O)N[C@@H](CCCNC(=N)N)C(=O)NCC(=O)O [Example 54] (Phenanthrenequinone2carbonyl-REPRG-OH)	–	–	> 30	–	–	–	5.41	–	–	6.05
O=C(O)CC[C@H](NC(=O)[C@@H]1CCCN1C(=O)[C@H](CCC(=O)O)NC(=O)CNC(=O)c1ccc2c(c1)C(=O)C(=O)c1ccccc1-2)C(=O)NCC(=O)O [Example 43] (Phenanthrenequinone2carbonyl-GEPEG-OH)	–	5.72	> 30	–	–	–	–	–	5.42	–

From patent US20030207812A1, “Cd45 inhibitors” (priority 2002, published 2003)
